Measured values reported in the NIST ThermoML archive (doi:10.1016/j.tca.2014.10.001).

Assay: mn = molality of the nth substance listed, in mol/kg
Conditions: 100 kPa, Liquid; for electrical conductivity: Alternating current cell with electrodes; for speed of sound: Frequency=3 MHz, Sing-around technique in a fixed-path interferometer; for mass density: Vibrating tube method

CCCCn1cc[n+](C)c1C.F[B-](F)(F)F [1-butyl-2,3-dimethylimidazolium tetrafluoroborate] + O
Conditions | electrical conductivity [S/m] | mass density [kg/m3] | speed of sound [m/s]
288.15 K, m1 = 0.03 | 0.229 | – | –
288.15 K, m1 = 0.0308 | – | 1000.29 | 1471.8
288.15 K, m1 = 0.0312 | 0.236 | – | –
288.15 K, m1 = 0.0324 | 0.245 | – | –
288.15 K, m1 = 0.0338 | 0.256 | – | –
288.15 K, m1 = 0.0353 | 0.265 | – | –
288.15 K, m1 = 0.0369 | 0.276 | – | –
288.15 K, m1 = 0.0386 | 0.288 | – | –
288.15 K, m1 = 0.0406 | 0.303 | – | –
288.15 K, m1 = 0.04107 | – | 1000.68 | 1474.2
288.15 K, m1 = 0.0427 | 0.319 | – | –
288.15 K, m1 = 0.0451 | 0.336 | – | –
288.15 K, m1 = 0.0477 | 0.355 | – | –
288.15 K, m1 = 0.0507 | 0.375 | – | –
288.15 K, m1 = 0.05137 | – | 1001.08 | 1476.5
288.15 K, m1 = 0.0541 | 0.399 | – | –
288.15 K, m1 = 0.058 | 0.427 | – | –
288.15 K, m1 = 0.06162 | – | 1001.46 | 1478.6
288.15 K, m1 = 0.0624 | 0.457 | – | –
288.15 K, m1 = 0.0677 | 0.491 | – | –
288.15 K, m1 = 0.07 | 0.508 | – | –
288.15 K, m1 = 0.0725 | 0.526 | – | –
288.15 K, m1 = 0.0752 | 0.542 | – | –
288.15 K, m1 = 0.0781 | 0.564 | – | –
288.15 K, m1 = 0.0812 | 0.586 | – | –
288.15 K, m1 = 0.08198 | – | 1002.23 | 1482.5
288.15 K, m1 = 0.0846 | 0.608 | – | –
288.15 K, m1 = 0.0882 | 0.634 | – | –
288.15 K, m1 = 0.0922 | 0.661 | – | –
288.15 K, m1 = 0.0966 | 0.688 | – | –
288.15 K, m1 = 0.1014 | 0.713 | – | –
288.15 K, m1 = 0.1024 | – | 1002.99 | 1485.2
288.15 K, m1 = 0.1068 | 0.745 | – | –
288.15 K, m1 = 0.1127 | 0.772 | – | –
288.15 K, m1 = 0.1193 | 0.806 | – | –
288.15 K, m1 = 0.1231 | – | 1003.74 | 1486.4
288.15 K, m1 = 0.1267 | 0.846 | – | –
288.15 K, m1 = 0.1352 | 0.891 | – | –
288.15 K, m1 = 0.1436 | – | 1004.47 | 1487.1
288.15 K, m1 = 0.1448 | 0.941 | – | –
288.15 K, m1 = 0.1559 | 0.997 | – | –
288.15 K, m1 = 0.164 | – | 1005.19 | 1487.7
288.15 K, m1 = 0.1688 | 1.06 | – | –
288.15 K, m1 = 0.1841 | 1.14 | – | –
288.15 K, m1 = 0.1846 | – | 1005.91 | 1488.2
288.15 K, m1 = 0.2025 | 1.23 | – | –
288.15 K, m1 = 0.205 | – | 1006.62 | 1488.7
298.15 K, m1 = 0.0306 | 0.247 | – | –
298.15 K, m1 = 0.031 | 0.249 | – | –
298.15 K, m1 = 0.0323 | 0.259 | – | –
298.15 K, m1 = 0.0337 | 0.27 | – | –
298.15 K, m1 = 0.0352 | 0.28 | – | –
298.15 K, m1 = 0.0368 | 0.291 | – | –
298.15 K, m1 = 0.0387 | 0.305 | – | –
298.15 K, m1 = 0.0407 | 0.319 | – | –
298.15 K, m1 = 0.0429 | 0.334 | – | –
298.15 K, m1 = 0.0454 | 0.351 | – | –
298.15 K, m1 = 0.0472 | 0.366 | – | –
298.15 K, m1 = 0.0491 | 0.379 | – | –
298.15 K, m1 = 0.0513 | 0.395 | – | –
298.15 K, m1 = 0.0536 | 0.413 | – | –
298.15 K, m1 = 0.0562 | 0.432 | – | –
298.15 K, m1 = 0.0575 | 0.441 | – | –
298.15 K, m1 = 0.059 | 0.45 | – | –
298.15 K, m1 = 0.0605 | 0.462 | – | –
298.15 K, m1 = 0.0621 | 0.472 | – | –
298.15 K, m1 = 0.0637 | 0.485 | – | –
298.15 K, m1 = 0.0655 | 0.498 | – | –
298.15 K, m1 = 0.0674 | 0.513 | – | –
298.15 K, m1 = 0.0694 | 0.528 | – | –
298.15 K, m1 = 0.0715 | 0.54 | – | –
298.15 K, m1 = 0.0737 | 0.557 | – | –
298.15 K, m1 = 0.0761 | 0.575 | – | –
298.15 K, m1 = 0.0786 | 0.595 | – | –
298.15 K, m1 = 0.0813 | 0.615 | – | –
298.15 K, m1 = 0.0842 | 0.636 | – | –
298.15 K, m1 = 0.0874 | 0.658 | – | –
298.15 K, m1 = 0.0907 | 0.682 | – | –
298.15 K, m1 = 0.0943 | 0.708 | – | –
298.15 K, m1 = 0.0983 | 0.735 | – | –
298.15 K, m1 = 0.1026 | 0.761 | – | –
